Reference: patent US20260184710A1, “CASITAS B-LINEAGE LYMPHOMA PROTOONCOGENE B (CBL-B) DEGRADING COMPOUNDS AND ASSOCIATED METHODS OF USE” (Arvinas Operations, Inc., priority 2022, published 2026)

Tests used:
Cbl-b [1] = biological target: T1, Cbl-b (Homo sapiens, UniProt Q13191); test: Cbl-b Degradation Method A (FACS, anti-Cbl-b antibody staining); type: cell-based; settings: Cbl-b-HiBit KI Jurkat Cells, incubated at least 20 hours; for DC50: half maximal degradation, read-out: Cbl-b Degredation Method A IC50; for Dmax: Jurkat, maximum degradation observed, read-out: Cbl-b Degredation Method A Dmax (%)
T1 construct: Cbl-b-HiBit KI Jurkat Cells were purchased from Promega; host or cells: Cbl-b-HiBiT knock-in Jurkat cells
T1 sequence (Q13191 whole entry): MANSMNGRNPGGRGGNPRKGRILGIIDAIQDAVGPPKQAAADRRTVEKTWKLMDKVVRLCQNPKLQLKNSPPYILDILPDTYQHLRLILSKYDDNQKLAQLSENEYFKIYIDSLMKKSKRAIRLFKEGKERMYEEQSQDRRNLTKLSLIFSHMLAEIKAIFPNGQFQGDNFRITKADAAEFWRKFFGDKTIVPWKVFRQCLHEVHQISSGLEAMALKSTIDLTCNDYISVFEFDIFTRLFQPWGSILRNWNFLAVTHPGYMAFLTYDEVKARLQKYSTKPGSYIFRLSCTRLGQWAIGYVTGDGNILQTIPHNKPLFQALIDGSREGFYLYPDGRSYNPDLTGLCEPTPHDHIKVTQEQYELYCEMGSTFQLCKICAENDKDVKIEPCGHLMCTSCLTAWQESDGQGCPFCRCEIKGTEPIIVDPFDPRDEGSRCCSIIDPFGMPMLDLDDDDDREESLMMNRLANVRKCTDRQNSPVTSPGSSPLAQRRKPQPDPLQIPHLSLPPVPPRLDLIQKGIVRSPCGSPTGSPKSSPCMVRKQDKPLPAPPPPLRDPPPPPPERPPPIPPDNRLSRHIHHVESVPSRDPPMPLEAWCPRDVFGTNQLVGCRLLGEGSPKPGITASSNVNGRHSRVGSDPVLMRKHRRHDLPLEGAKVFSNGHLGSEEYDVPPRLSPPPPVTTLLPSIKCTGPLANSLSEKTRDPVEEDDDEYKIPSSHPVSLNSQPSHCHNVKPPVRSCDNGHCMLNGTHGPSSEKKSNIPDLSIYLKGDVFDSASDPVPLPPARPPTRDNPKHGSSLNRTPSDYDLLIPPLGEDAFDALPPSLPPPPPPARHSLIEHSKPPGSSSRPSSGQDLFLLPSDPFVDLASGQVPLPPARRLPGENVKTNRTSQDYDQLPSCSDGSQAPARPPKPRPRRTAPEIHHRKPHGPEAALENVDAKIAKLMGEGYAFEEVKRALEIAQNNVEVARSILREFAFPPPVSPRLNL
Procedure, shortened: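 Cbl-b-HiBit KI Jurkat cells treated with compound for at least 20 h at 37 °C, then fixed, permeabilized and stained with anti-Cbl-b antibody plus anti-rabbit AF488 secondary. Cbl-b levels read by FACS; DC50 and Dmax (percent of control) derived.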

Cbl-b [2] = biological target: T1, Cbl-b; test: Cbl-b Degradation Method B (Nano-Glo HiBiT lytic detection); type: cell-based; settings: Cbl-b-HiBit KI Jurkat Cells, incubated at least 6-24 hours; for DC50: half maximal degradation, read-out: Cbl-b Degredation Method B IC50; for Dmax: read-out: Cbl-b Degredation Method B Dmax (%)
Procedure, shortened: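 Cbl-b-HiBiT knock-in Jurkat cells (20,000/well) were treated after ~24 h plating with an 11-point 1:3 series for 6-24 h at 37° C. Remaining Cbl-b measured by Nano-Glo HiBiT lytic luminescence. DC50 and Dmax expressed as % of control.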

| SMILES | DC50 (Cbl-b [1]) [nM] | Dmax (Cbl-b [1]) [%] | DC50 (Cbl-b [2]) [nM] | Dmax (Cbl-b [2]; maximum degradation observed) [%] | Cbl-b Degredation Method B Dmax (%) (Cbl-b [2]; maximum degradation observed) |
| --- | --- | --- | --- | --- | --- |
| Cn1cnnc1C[C@]1(c2cccc(N3Cc4c(cc(CN5CCN(C[C@H]6CC[C@H](OC7CCN(c8ccc9c(c8)n(C)c(=O)n9C8CCC(=O)NC8=O)CC7)CC6)CC5)cc4C(F)(F)F)C3=O)c2)C[C@H](C#N)C1 (stereo partly drawn) [Example 215, (1r,3r)-3-[(4-methyl-4H-1,2,4-triazol-3-yl)methyl]-3-(3-{1-oxo-6-[(4-{[(1r,4r)-4-({1-[1-(2,6-dioxopiperidin-3-yl)-3-methyl-2-oxo-2,3-dihydro-1H-1,3-benzodiazol-5-yl]piperidin-4-yl}oxy)cyclohexyl]methyl}piperazin-1-yl)methyl]-4-(trifluoromethyl)-2,3-dihydro-1H-isoindol-2-yl}phenyl)cyclobutane-1-carbonitrile] | < 5 | > 70 | < 5 | 35 to 70 |  |
| CC1c2nc(N3CCC(O[C@H]4CC[C@H](CN5C[C@H]6C[C@@H]5CN6Cc5cc6c(c(C(F)(F)F)c5)CN(c5cccc([C@]7(Cc8nncn8C)C[C@@H](C#N)C7)c5)C6=O)CC4)CC3)ccc2C(=O)N1C1CCC(=O)NC1=O (stereo partly drawn) [Example 217, (1r,3r)-3-[(4-methyl-4H-1,2,4-triazol-3-yl)methyl]-3-[3-(1-oxo-6-{[(1R,4R)-5-{[(1r,4r)-4-({1-[6-(2,6-dioxopiperidin-3-yl)-7-methyl-5-oxo-5H,6H,7H-pyrrolo[3,4-b]pyridin-2-yl]piperidin-4-yl}oxy)cyclohexyl]methyl}-2,5-diazabicyclo[2.2.1]heptan-2-yl]methyl}-4-(trifluoromethyl)-2,3-dihydro-1H-isoindol-2-yl)phenyl]cyclobutane-1-carbonitrile] | 5 to 50 | 35 to 70 | < 5 | 35 to 70 |  |
| Cn1cnnc1CC1(c2cccc(N3Cc4c(cc(CN5CCCC(N6CC7(CCN(c8ccc9c(c8)C(=O)N(C8CCC(=O)NC8=O)C9=O)CC7)C6)C5)cc4C(F)(F)F)C3=O)c2)COC1 (stereo not drawn) [Example 108, 2-(2,6-dioxopiperidin-3-yl)-5-[2-(1-{[2-(3-{3-[(4-methyl-4H-1,2,4-triazol-3-yl)methyl]oxetan-3-yl}phenyl)-3-oxo-7-(trifluoromethyl)-2,3-dihydro-1H-isoindol-5-yl]methyl}piperidin-3-yl)-2,7-diazaspiro[3.5]nonan-7-yl]-2,3-dihydro-1H-isoindole-1,3-dione] | 5 to 50 | < 35 | 5 to 50 | 35 to 70 |  |
| Cn1cnnc1CC1(c2cccc(N3Cc4c(cc(NCC[C@H]5CC[C@H](OC6CCN(c7ccc8c(c7F)CN(C7CCC(=O)NC7=O)C8=O)CC6)CC5)cc4C(F)(F)F)C3=O)c2)COC1 (stereo partly drawn) [Example 17, 3-[4-fluoro-5-[4-[4-[2-[[2-[3-[3-[(4-methyl-1,2,4-triazol-3-yl)methyl]oxetan-3-yl]phenyl]-3-oxo-7-(trifluoromethyl)isoindolin-5-yl]amino]ethyl]cyclohexoxy]-1-piperidyl]-1-oxo-isoindolin-2-yl]piperidine-2,6-dione] | > 500 |  | > 500 |  |  |
| Cn1cnnc1CC1(c2cccc(N3Cc4c(cc(CN5CCC[C@H](CN6CCN(C[C@H]7CC[C@@H](OC8CCN(c9ccc%10c(c9Cl)CN(C9CCC(=O)NC9=O)C%10=O)CC8)CC7)CC6)C5)cc4C(F)(F)F)C3=O)c2)COC1 (stereo partly drawn) [Example 165, 3-[4-chloro-1-oxo-5-(4-{[(1r,4r)-4-[(4-{[(3S)-1-{[2-(3-{3-[(4-methyl-4H-1,2,4-triazol-3-yl)methyl]oxetan-3-yl}phenyl)-3-oxo-7-(trifluoromethyl)-2,3-dihydro-1H-isoindol-5-yl]methyl}piperidin-3-yl]methyl}piperazin-1-yl)methyl]cyclohexyl]oxy}piperidin-1-yl)-2,3-dihydro-1H-isoindol-2-yl]piperidine-2,6-dione] | < 5 | > 70 | < 5 | > 70 |  |
| CC1CC(CN2CC3(CCN(c4ccc5c(c4)C(=O)N(C4CCC(=O)NC4=O)C5=O)CC3)C2)CN(Cc2cc3c(c(C(F)(F)F)c2)CN(c2cccc(C4(Cc5nncn5C)COC4)c2)C3=O)C1 (stereo not drawn) [Example 92, 2-(2,6-dioxopiperidin-3-yl)-5-{2-[(5-methyl-1-{[2-(3-{3-[(4-methyl-4H-1,2,4-triazol-3-yl)methyl]oxetan-3-yl}phenyl)-3-oxo-7-(trifluoromethyl)-2,3-dihydro-1H-isoindol-5-yl]methyl}piperidin-3-yl)methyl]-2,7-diazaspiro[3.5]nonan-7-yl}-2,3-dihydro-1H-isoindole-1,3-dione] | > 500 |  | > 500 |  |  |
| Cn1cnnc1C[C@]1(c2cccc(N3Cc4c(cc(N5CC6(CCN(CC7(F)CCN(c8ccc9c(c8)C(=O)N(C8CCC(=O)NC8=O)C9=O)CC7)CC6)C5)cc4C(F)(F)F)C3=O)c2)C[C@H](C#N)C1 (stereo partly drawn) [Example 172, (1r,3r)-3-(3-{6-[7-({1-[2-(2,6-dioxopiperidin-3-yl)-1,3-dioxo-2,3-dihydro-1H-isoindol-5-yl]-4-fluoropiperidin-4-yl}methyl)-2,7-diazaspiro[3.5]nonan-2-yl]-1-oxo-4-(trifluoromethyl)-2,3-dihydro-1H-isoindol-2-yl}phenyl)-3-[(4-methyl-4H-1,2,4-triazol-3-yl)methyl]cyclobutane-1-carbonitrile] | 5 to 50 | 35 to 70 | 5 to 50 | 35 to 70 |  |
| CC1c2c(cc(CN3CCC[C@H](CN4CCN(C[C@H]5CC[C@H](OC6CCN(c7ccc8c(c7F)CN(C7CCC(=O)NC7=O)C8=O)CC6)CC5)CC4(C)C)C3)cc2C(F)(F)F)C(=O)N1c1cccc(C2(Cc3nncn3C)COC2)c1 (stereo partly drawn) [Example 276, 3-(5-(4-(((1S,4r)-4-((3,3-dimethyl-4-(((3S)-1-((1-methyl-2-(3-(3-((4-methyl-4H-1,2,4-triazol-3-yl)methyl)oxetan-3-yl)phenyl)-3-oxo-7-(trifluoromethyl)isoindolin-5-yl)methyl)piperidin-3-yl)methyl)piperazin-1-yl)methyl)cyclohexyl)oxy)piperidin-1-yl)-4-fluoro-1-oxoisoindolin-2-yl)piperidine-2,6-dione] | 5 to 50 | < 35 | 5 to 50 |  | C (C ≤ 35) |
| Cn1cnnc1C[C@]1(c2cccc(N3Cc4c(cc(N5CC6(CCN(CC7CCN(c8ccc9c(c8)C(=O)N(C8CCC(=O)NC8=O)C9=O)CC7)CC6)C5)cc4C(F)(F)F)C3=O)c2)C[C@H](C#N)C1 (stereo partly drawn) [Example 136, (1r,3r)-3-(3-{6-[7-({1-[2-(2,6-dioxopiperidin-3-yl)-1,3-dioxo-2,3-dihydro-1H-isoindol-5-yl]piperidin-4-yl}methyl)-2,7-diazaspiro[3.5]nonan-2-yl]-1-oxo-4-(trifluoromethyl)-2,3-dihydro-1H-isoindol-2-yl}phenyl)-3-[(4-methyl-4H-1,2,4-triazol-3-yl)methyl]cyclobutane-1-carbonitrile] | 5 to 50 | 35 to 70 | 5 to 50 | 35 to 70 |  |
| Cn1cnnc1CC1(c2cccc(N3Cc4c(cc(CN5CCC(CN6CCC(Oc7ccc8c(c7)C(=O)N(C7CCC(=O)NC7=O)C8=O)CC6)CC5)cc4C(F)(F)F)C3=O)c2)COC1 (stereo not drawn) [Example 30, 2-(2,6-dioxopiperidin-3-yl)-5-({1-[(1-{[2-(3-{3-[(4-methyl-4H-1,2,4-triazol-3-yl)methyl]oxetan-3-yl}phenyl)-3-oxo-7-(trifluoromethyl)-2,3-dihydro-1H-isoindol-5-yl]methyl}piperidin-4-yl)methyl]piperidin-4-yl}oxy)-2,3-dihydro-1H-isoindole-1,3-dione] | > 500 |  | > 500 |  |  |
| Cn1cnnc1CC1(c2cccc(N3Cc4c(cc(N5CC6(CN(c7ccc8c(c7)C(=O)N(C7CCC(=O)NC7=O)C8=O)C6)C5)cc4C(F)(F)F)C3=O)c2)COC1 (stereo not drawn) [Example 123, 2-(2,6-dioxopiperidin-3-yl)-5-{6-[2-(3-{3-[(4-methyl-4H-1,2,4-triazol-3-yl)methyl]oxetan-3-yl}phenyl)-3-oxo-7-(trifluoromethyl)-2,3-dihydro-1H-isoindol-5-yl]-2,6-diazaspiro[3.3]heptan-2-yl}-2,3-dihydro-1H-isoindole-1,3-dione] | 50 to 500 | 35 to 70 | > 500 |  |  |
| Cn1cnnc1CC1(c2cccc(N3Cc4c(cc(N5CC(C6CN(c7ccc8c(c7)C(=O)N(C7CCC(=O)NC7=O)C8=O)C6)C5)cc4C(F)(F)F)C3=O)c2)COC1 (stereo not drawn) [Example 121, 2-(2,6-dioxopiperidin-3-yl)-5-{1′-[2-(3-{3-[(4-methyl-4H-1,2,4-triazol-3-yl)methyl]oxetan-3-yl}phenyl)-3-oxo-7-(trifluoromethyl)-2,3-dihydro-1H-isoindol-5-yl]-[3,3′-biazetidin]-1-yl}-2,3-dihydro-1H-isoindole-1,3-dione] | 5 to 50 |  | > 500 |  |  |
